These results are taken from PMC3189207, “DomPep—A General Method for Predicting Modular Domain-Mediated Protein-Protein Interactions” (PLoS ONE, 2011).

The target in one test is T1, Scrib PDZ-1 domain (Homo sapiens, UniProt Q14160).
T1 construct: ROC curves of DomPep prediction for the three Scrib PDZ-1/2/3 domains
Kind of test: In-solution fluorescence polarization binding of peptides to Scrib PDZ1. The following applies: Kd value of 100 µM applied as binding cutoff, NB without definition, read-out: Kd (µM) PDZ1.

A further test addresses T2, Scrib PDZ-2 domain (Homo sapiens, UniProt Q14160).
T2 construct: ROC curves of DomPep prediction for the three Scrib PDZ-1/2/3 domains
T2 sequence (Q14160 862-950 limits assumed): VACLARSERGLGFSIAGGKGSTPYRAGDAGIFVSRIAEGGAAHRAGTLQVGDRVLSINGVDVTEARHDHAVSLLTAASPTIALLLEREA
As to the kind of experiment: In-solution fluorescence polarization binding of peptides to Scrib PDZ2. The following applies: Kd value of 100 µM applied as binding cutoff, NB without definition, read-out: Kd (µM) PDZ2.

For a further test, the target named is T3, Scrib PDZ-3 domain (Homo sapiens, UniProt Q14160).
T3 construct: ROC curves of DomPep prediction for the three Scrib PDZ-1/2/3 domains
T3 sequence (Q14160 1004-1093 limits assumed): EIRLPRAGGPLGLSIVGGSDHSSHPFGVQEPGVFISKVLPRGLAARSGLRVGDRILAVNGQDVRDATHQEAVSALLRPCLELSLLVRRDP
Kind of test: In-solution fluorescence polarization binding of peptides to Scrib PDZ3. The following applies: Kd value of 100 µM applied as binding cutoff, NB without definition. From the text:
Because DomPep compared favorably to MDSM in identifying ligands for a PDZ domain included in the training set and to SPSSM in identifying binding peptides for an untrained PDZ domain, we next tested it whether it could reliably PPIs mediated by a PDZ domain on the genome scale. To this end, we employed three DomPep models to predict interactions between the Scrib PDZ domains and human proteins from the Swiss-Prot protein database. The three prediction models, which were generated for the mouse Scrib PDZ-1, PDZ-2 and PDZ-3 domains, were trained with 6, 5 and 30 positive peptide, respectively (Table S1). Searching the protein database with these models yielded a list of potential PDZ ligands. […] This experiment identified 14, 14, and 38 positives for the PDZ-1, -2, and -3 domains, respectively (Table 1). […] Importantly, we identified four peptides that were not included in the training set as physiological binders to the Scrib PDZ domains. The corresponding proteins, namely APC, LPP, VANGL2 and ZO2, were previously reported to interact with Scrib in vivo via its PDZ domains, [36], [37], [38], [39].
Figure 4 Application of DomPep to the prediction of PDZ-binding ligands. ROC curves of DomPep prediction for the three Scrib PDZ-1/2/3 domains using 56 peptides selected from the human protein database as the test set. The respective affinities of the three domains for the 56 peptides were measured by fluorescence polarization (Table 1).

Structures are written as SMILES. Residues, ends and D or L forms follow the SMILES beside them.

T1 sequence (Q14160 728-815 limits assumed): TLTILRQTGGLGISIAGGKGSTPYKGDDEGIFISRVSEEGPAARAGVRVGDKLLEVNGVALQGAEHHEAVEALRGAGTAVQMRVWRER

As for `CSCC[C@H](NC(=O)[C@H](CC(C)C)NC(=O)[C@@H](NC(=O)[C@H](CS)NC(=O)[C@H](CCCCN)NC(=O)CNC(=O)[C@H](CCCCN)NC(=O)[C@@H](NC(=O)[C@H](CCCNC(=N)N)NC(=O)[C@@H](N)CC(=O)O)C(C)C)[C@@H](C)O)C(=O)O` [DIRAS1] (H-DRVKGKCTLM-OH; N-terminus and C-terminus assumed), the Kd on Scrib PDZ-1 domain, on Scrib PDZ-2 domain and on Scrib PDZ-3 domain was over 100 µM each time.
With `CC[C@H](C)[C@H](NC(=O)[C@@H]1CCCN1C(=O)[C@@H](NC(=O)CNC(=O)[C@@H](NC(=O)[C@@H](NC(=O)[C@H](CC(N)=O)NC(=O)[C@@H](NC(=O)[C@H](CCC(N)=O)NC(=O)[C@@H](N)CC(=O)O)C(C)C)[C@@H](C)O)C(C)C)[C@@H](C)CC)C(=O)O` [EPHA2] (H-DQVNTVGIPI-OH; N-terminus and C-terminus assumed), the Kd at Scrib PDZ-1 domain, on Scrib PDZ-2 domain and at Scrib PDZ-3 domain was over 100 µM throughout.
In the case of `CC(C)[C@H](NC(=O)[C@@H]1CCCN1C(=O)[C@@H](NC(=O)[C@@H]1CCCN1C(=O)CNC(=O)[C@H](CC(N)=O)NC(=O)[C@H](CCCCN)NC(=O)[C@H](CO)NC(=O)[C@H](CCC(N)=O)NC(=O)[C@@H](N)[C@@H](C)O)C(C)C)C(=O)O` [EPHA3] (H-TQSKNGPVPV-OH), the Kd was 129 µM at Scrib PDZ-1 domain, over 100 µM on Scrib PDZ-2 domain and over 100 µM at Scrib PDZ-3 domain.
In the case of `CC[C@H](C)[C@H](NC(=O)CNC(=O)[C@@H](NC(=O)CNC(=O)[C@H](Cc1c[nH]cn1)NC(=O)[C@H](CC(C)C)NC(=O)[C@H](Cc1c[nH]cn1)NC(=O)[C@@H](N)CC(C)C)[C@@H](C)O)C(=O)N[C@@H](CCC(N)=O)C(=O)N[C@H](C(=O)O)C(C)C` [EPHA7] (H-LHLHGTGIQV-OH; N-terminus and C-terminus assumed), the Kd on Scrib PDZ-1 domain, at Scrib PDZ-2 domain and on Scrib PDZ-3 domain was over 100 µM in each case.
Take `CC[C@H](C)[C@H](NC(=O)[C@@H]1CCCN1C(=O)[C@@H]1CCCN1C(=O)[C@@H](NC(=O)[C@H](CO)NC(=O)[C@H](Cc1ccc(O)cc1)NC(=O)[C@H](CC(C)C)NC(=O)[C@@H](NC(=O)[C@@H](NC(=O)[C@@H](N)CO)C(C)C)C(C)C)[C@@H](C)O)C(=O)O` [FLT1] (H-SVVLYSTPPI-OH; N-terminus and C-terminus assumed): the Kd on Scrib PDZ-1 domain, on Scrib PDZ-2 domain and at Scrib PDZ-3 domain was over 100 µM throughout.
In the case of `CC(C)C[C@H](NC(=O)[C@H](C)NC(=O)[C@@H](NC(=O)[C@H](CO)NC(=O)[C@@H](N)CO)[C@@H](C)O)C(=O)N[C@@H](Cc1c[nH]cn1)C(=O)N[C@@H](CCC(N)=O)C(=O)N[C@@H](Cc1c[nH]cn1)C(=O)N[C@@H](Cc1c[nH]cn1)C(=O)N[C@@H](Cc1ccccc1)C(=O)O` [LIMD1] (H-SSTALHQHHF-OH; N-terminus and C-terminus assumed), the Kd on Scrib PDZ-1 domain, at Scrib PDZ-2 domain and at Scrib PDZ-3 domain was over 100 µM in each case.
Turning to `CC(C)[C@H](NC(=O)[C@H](CCCNC(=N)N)NC(=O)[C@@H](N)CC(=O)O)C(=O)N[C@@H](C)C(=O)N[C@@H](CCC(=O)O)C(=O)N[C@@H](CCC(N)=O)C(=O)N[C@@H](CC(=O)O)C(=O)N[C@H](C(=O)N[C@@H](CCC(N)=O)C(=O)N[C@@H](C)C(=O)O)[C@@H](C)O` [MPG] (H-DRVAEQDTQA-OH), the Kd on Scrib PDZ-1 domain is over 100 µM; on Scrib PDZ-2 domain, over 100 µM; on Scrib PDZ-3 domain it was 186 µM.
As for `CC(C)C[C@H](NC(=O)[C@@H](NC(=O)[C@H](CCCCN)NC(=O)[C@H](CC(C)C)NC(=O)[C@H](Cc1ccccc1)NC(=O)[C@H](CCCCN)NC(=O)[C@H](CCC(=O)O)NC(=O)[C@H](Cc1ccccc1)NC(=O)[C@H](CC(=O)O)NC(=O)[C@@H](N)CCC(N)=O)[C@@H](C)O)C(=O)O` [MTERFD1] (H-QDFEKFLKTL-OH; N-terminus and C-terminus assumed), the Kd at Scrib PDZ-1 domain, at Scrib PDZ-2 domain and on Scrib PDZ-3 domain was over 100 µM each time.
Turning to `CC(C)[C@H](NC(=O)[C@H](CO)NC(=O)[C@@H](NC(=O)[C@@H](NC(=O)CNC(=O)[C@H](CCC(=O)O)NC(=O)[C@H](C)NC(=O)[C@H](CCCNC(=N)N)NC(=O)[C@H](CCC(=O)O)NC(=O)[C@@H](N)CS)[C@@H](C)O)C(C)C)C(=O)O` [MUSK] (H-CERAEGTVSV-OH), the Kd was over 100 µM at Scrib PDZ-1 domain, over 100 µM at Scrib PDZ-2 domain and 143 µM on Scrib PDZ-3 domain.
With `CC[C@H](C)[C@H](NC(=O)[C@@H](NC(=O)[C@H](Cc1ccccc1)NC(=O)[C@H](CCC(=O)O)NC(=O)[C@@H]1CCCN1C(=O)[C@H](CC(N)=O)NC(=O)[C@@H](NC(=O)[C@@H](N)Cc1ccc(O)cc1)[C@@H](C)O)C(C)C)C(=O)N[C@@H](CC(N)=O)C(=O)N[C@H](C(=O)O)C(C)C` [PRKCB1] (H-YTNPEFVINV-OH; N-terminus and C-terminus assumed), the Kd on Scrib PDZ-1 domain, at Scrib PDZ-2 domain and on Scrib PDZ-3 domain was over 100 µM throughout.
With `CC(C)[C@H](NC(=O)[C@H](CO)NC(=O)[C@H](CCCCN)NC(=O)[C@H](CCCCN)NC(=O)[C@H](CO)NC(=O)[C@H](CCCCN)NC(=O)[C@H](CCCCN)NC(=O)[C@H](CCCCN)NC(=O)[C@H](CCC(=O)O)NC(=O)[C@H](C)N)C(=O)O` [PSMA8] (H-AEKKKSKKSV-OH), the Kd was over 100 µM on Scrib PDZ-1 domain, over 100 µM on Scrib PDZ-2 domain and 177 µM on Scrib PDZ-3 domain.
Turning to `CC(C)C[C@H](NC(=O)[C@H](CCCCN)NC(=O)[C@H](CO)NC(=O)[C@H](CCC(=O)O)NC(=O)[C@H](CO)NC(=O)[C@@H](NC(=O)[C@H](CCC(N)=O)NC(=O)[C@@H]1CCCN1C(=O)[C@H](CCCCN)NC(=O)[C@@H](N)C(C)C)C(C)C)C(=O)O` [PTE1] (H-VKPQVSESKL-OH; N-terminus and C-terminus assumed), the Kd on Scrib PDZ-1 domain, at Scrib PDZ-2 domain and on Scrib PDZ-3 domain was over 100 µM each time.
`CC(C)C[C@H](NC(=O)[C@H](CS)NC(=O)[C@H](CC(=O)O)NC(=O)[C@@H](NC(=O)[C@H](CC(N)=O)NC(=O)[C@H](CCCNC(=N)N)NC(=O)[C@H](CC(C)C)NC(=O)CNC(=O)CNC(=O)[C@@H](N)CC(=O)O)C(C)C)C(=O)O` [TBK1] (H-DGGLRNVDCL-OH): the figures for the Kd on Scrib PDZ-1 domain, at Scrib PDZ-2 domain and on Scrib PDZ-3 domain were 77 µM, over 100 µM and 67.8 µM, respectively.
Taken in the same sequence, the figures for `CC[C@H](C)[C@H](NC(=O)[C@@H](N)CC(N)=O)C(=O)NCC(=O)N[C@@H](CO)C(=O)N[C@@H](CCC(N)=O)C(=O)NCC(=O)N[C@@H](CO)C(=O)N[C@H](C(=O)N[C@@H](CC(=O)O)C(=O)N[C@@H](Cc1ccc(O)cc1)C(=O)O)[C@@H](C)O` [TRIM21] (H-NIGSQGSTDY-OH) were over 100 µM, over 100 µM and 116 µM.
On to `CC[C@H](C)[C@H](NC(=O)[C@H](C)NC(=O)[C@H](CO)NC(=O)[C@H](CC(C)C)NC(=O)[C@H](CC(C)C)NC(=O)[C@@H](N)CCC(=O)O)C(=O)N[C@@H](CCC(=O)O)C(=O)N[C@@H](CCCCN)C(=O)N[C@@H](CC(C)C)C(=O)N[C@@H](CC(C)C)C(=O)O` [UBXD1] (H-ELLSAIEKLL-OH; N-terminus and C-terminus assumed), for which the Kd on Scrib PDZ-1 domain, at Scrib PDZ-2 domain and on Scrib PDZ-3 domain was over 100 µM throughout.
As to `CC(C)C[C@H](NC(=O)[C@H](CCCCN)NC(=O)[C@H](CO)NC(=O)[C@H](CC(N)=O)NC(=O)[C@@H](NC(=O)[C@H](CO)NC(=O)[C@H](Cc1c[nH]cn1)NC(=O)[C@@H]1CCCN1C(=O)[C@H](CC(C)C)NC(=O)[C@@H](N)CCC(=O)O)C(C)C)C(=O)O` [ZADH2] (H-ELPHSVNSKL-OH; N-terminus and C-terminus assumed), the Kd on Scrib PDZ-1 domain, at Scrib PDZ-2 domain and on Scrib PDZ-3 domain was over 100 µM each time.
